# Measurements published in publication PMC10882719 (Frontiers in Neuroscience, 2024).
# Like-named read-outs stand apart in the source and are kept apart here.
# Tests used:
# Assay type in all cases: cell-based
# 168 GPCRs [1] = target: T1, 168 GPCRs (Homo sapiens, UniProt P22888); conditions: LHCGR
# T1 construct: host or cells: PathHunter cell lines
# 168 GPCRs [2] = target: T2, 168 GPCRs (Homo sapiens, UniProt P25103); conditions: TACR1
# T2 construct: host or cells: PathHunter cell lines
# 168 GPCRs [3] = target: T3, 168 GPCRs (Homo sapiens, UniProt P08173)
# T3 construct: host or cells: PathHunter cell lines
# T3 sequence (P08173 1-479): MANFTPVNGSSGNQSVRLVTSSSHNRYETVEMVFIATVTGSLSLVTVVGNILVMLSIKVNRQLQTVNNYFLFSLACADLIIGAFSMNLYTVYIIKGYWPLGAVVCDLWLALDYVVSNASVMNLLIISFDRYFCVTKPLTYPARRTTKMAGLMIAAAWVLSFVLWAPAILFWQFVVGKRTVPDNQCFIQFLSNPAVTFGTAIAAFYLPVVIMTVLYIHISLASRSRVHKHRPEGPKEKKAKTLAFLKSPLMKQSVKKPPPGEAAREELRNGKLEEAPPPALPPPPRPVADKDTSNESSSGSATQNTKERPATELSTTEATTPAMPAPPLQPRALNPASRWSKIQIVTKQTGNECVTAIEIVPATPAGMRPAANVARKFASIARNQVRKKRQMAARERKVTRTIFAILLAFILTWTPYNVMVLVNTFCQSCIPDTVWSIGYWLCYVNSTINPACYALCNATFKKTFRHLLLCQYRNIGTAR
# 168 GPCRs [4] = target: T4, 168 GPCRs (Homo sapiens, UniProt P21917)
# T4 construct: host or cells: PathHunter cell lines
# T4 sequence (P21917 1-419): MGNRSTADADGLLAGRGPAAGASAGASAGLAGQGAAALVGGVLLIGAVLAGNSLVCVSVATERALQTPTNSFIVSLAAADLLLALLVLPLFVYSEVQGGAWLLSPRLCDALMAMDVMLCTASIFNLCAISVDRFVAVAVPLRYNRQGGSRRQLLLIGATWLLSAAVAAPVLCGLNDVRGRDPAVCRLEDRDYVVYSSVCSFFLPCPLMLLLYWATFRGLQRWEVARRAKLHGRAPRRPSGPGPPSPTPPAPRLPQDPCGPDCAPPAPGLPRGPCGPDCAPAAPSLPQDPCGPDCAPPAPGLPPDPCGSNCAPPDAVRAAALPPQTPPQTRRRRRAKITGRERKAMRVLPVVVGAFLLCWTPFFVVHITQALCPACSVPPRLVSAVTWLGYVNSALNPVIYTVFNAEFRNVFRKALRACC
# 168 GPCRs [5] = target: T5, 168 GPCRs (Homo sapiens, UniProt P43115); conditions: PTGER3
# T5 construct: host or cells: PathHunter cell lines
# T5 sequence (P43115 1-390): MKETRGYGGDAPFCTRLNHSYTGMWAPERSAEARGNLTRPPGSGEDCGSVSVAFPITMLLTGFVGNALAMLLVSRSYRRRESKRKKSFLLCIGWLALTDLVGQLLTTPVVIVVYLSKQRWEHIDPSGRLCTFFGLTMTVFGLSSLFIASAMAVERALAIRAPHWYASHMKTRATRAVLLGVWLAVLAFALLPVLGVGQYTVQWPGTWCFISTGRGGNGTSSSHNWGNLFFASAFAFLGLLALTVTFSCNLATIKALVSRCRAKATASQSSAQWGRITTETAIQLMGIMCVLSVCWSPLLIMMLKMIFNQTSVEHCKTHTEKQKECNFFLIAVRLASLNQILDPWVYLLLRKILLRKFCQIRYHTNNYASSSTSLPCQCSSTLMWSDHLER
# 168 GPCRs [6] = tested on: 168 GPCRs
# T1 sequence (P22888 27-699): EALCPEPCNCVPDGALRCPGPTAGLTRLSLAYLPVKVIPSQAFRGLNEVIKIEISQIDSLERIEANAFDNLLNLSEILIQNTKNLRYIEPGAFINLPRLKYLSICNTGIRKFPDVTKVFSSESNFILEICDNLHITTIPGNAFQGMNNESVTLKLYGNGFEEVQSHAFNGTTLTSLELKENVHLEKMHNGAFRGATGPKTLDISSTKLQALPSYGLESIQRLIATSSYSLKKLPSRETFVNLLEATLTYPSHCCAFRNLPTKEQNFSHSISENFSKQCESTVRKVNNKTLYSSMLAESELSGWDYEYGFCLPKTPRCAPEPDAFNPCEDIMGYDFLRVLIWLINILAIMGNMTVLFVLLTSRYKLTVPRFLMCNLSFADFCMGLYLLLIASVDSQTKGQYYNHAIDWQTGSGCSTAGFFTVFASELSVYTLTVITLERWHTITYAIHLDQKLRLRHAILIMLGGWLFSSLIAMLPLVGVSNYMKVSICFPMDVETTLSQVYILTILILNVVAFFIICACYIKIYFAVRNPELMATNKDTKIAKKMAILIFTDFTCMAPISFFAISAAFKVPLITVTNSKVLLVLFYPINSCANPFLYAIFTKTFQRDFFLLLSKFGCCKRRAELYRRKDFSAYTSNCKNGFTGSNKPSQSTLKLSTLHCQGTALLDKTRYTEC
# T2 sequence (P25103 whole entry): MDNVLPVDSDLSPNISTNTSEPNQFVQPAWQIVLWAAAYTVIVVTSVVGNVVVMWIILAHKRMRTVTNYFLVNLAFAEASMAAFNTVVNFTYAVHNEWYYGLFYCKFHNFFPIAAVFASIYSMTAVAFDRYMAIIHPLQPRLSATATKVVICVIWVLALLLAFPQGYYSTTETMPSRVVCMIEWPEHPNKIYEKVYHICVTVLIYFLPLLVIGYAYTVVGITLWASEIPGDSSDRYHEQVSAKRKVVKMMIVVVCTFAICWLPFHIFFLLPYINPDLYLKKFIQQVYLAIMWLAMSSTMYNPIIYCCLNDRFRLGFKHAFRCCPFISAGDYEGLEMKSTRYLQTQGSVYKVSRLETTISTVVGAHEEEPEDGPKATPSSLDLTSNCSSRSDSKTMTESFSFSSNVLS
smiles,measurement,setting,value
CNC(C)C(=O)c1ccc2c(c1)OCO2 (stereo not shown) [methylone],% Agonist Activity,168 GPCRs [1]; 1 uM,0.4%
same,% Antagonist Activity,168 GPCRs [1]; 1 uM,13.8%
same,% Agonist Activity,168 GPCRs [1]; 10 uM,0.4%
same,% Antagonist Activity,168 GPCRs [1]; 10 uM,11.2%
same,% Agonist Activity,168 GPCRs [2]; Conc 1 uM,-3.9%
same,% Antagonist Activity,168 GPCRs [2]; Conc 1 uM,15.2%
same,% Agonist Activity,168 GPCRs [2]; Conc 10 uM,-4.4%
same,% Antagonist Activity,168 GPCRs [2]; Conc 10 uM,8.9%
same,% Agonist Activity,"168 GPCRs [3]; CHRM4, 1 uM",-5.8%
same,% Antagonist Activity,"168 GPCRs [3]; CHRM4, 1 uM",10.2%
same,% Agonist Activity,"168 GPCRs [3]; CHRM4, 10 uM",-6.2%
same,% Antagonist Activity,"168 GPCRs [3]; CHRM4, 10 uM",6.7%
same,% Agonist Activity,"168 GPCRs [4]; DRD4, 1 uM",-8%
same,% Antagonist Activity,"168 GPCRs [4]; DRD4, 1 uM",8.4%
same,% Agonist Activity,"168 GPCRs [4]; DRD4, 10 uM",-9.4%
same,% Antagonist Activity,"168 GPCRs [4]; DRD4, 10 uM",12.2%
same,% Agonist Activity,168 GPCRs [5]; Conc 1 uM,4.5%
same,% Antagonist Activity,168 GPCRs [5]; Conc 1 uM,-6.2%
same,% Agonist Activity,168 GPCRs [5]; Conc 10 uM,1.9%
same,% Antagonist Activity,168 GPCRs [5]; Conc 10 uM,-5.7%
same,Agonist activity at any of 168 GPCRs,"168 GPCRs [6]; 1 or 10 μM, threshold 30% activity",no significant agonist activity
same,Antagonist activity at any GPCR,"168 GPCRs [6]; 1 or 10 μM, threshold 50% inhibition",no significant antagonist activity
same,% Agonist Activity,"168 GPCRs [6]; DRD2S, 1 uM",0%
same,% Antagonist Activity,"168 GPCRs [6]; DRD2S, 1 uM",3.6%
same,% Agonist Activity,"168 GPCRs [6]; DRD2S, 10 uM",0.6%
same,% Antagonist Activity,"168 GPCRs [6]; DRD2S, 10 uM",-11.6%
same,% Agonist Activity,"168 GPCRs [6]; NPSR1B, Conc 1 uM",-1.3%
same,% Antagonist Activity,"168 GPCRs [6]; NPSR1B, Conc 1 uM",-10.6%
same,% Agonist Activity,"168 GPCRs [6]; NPSR1B, Conc 10 uM",4.8%
same,% Antagonist Activity,"168 GPCRs [6]; NPSR1B, Conc 10 uM",-7.6%
"CNC(C)Cc1ccc2c(c1)OCO2 (stereo not shown) [MDMA, 3,4-Methylenedioxy methamphetamine, reference compound]",% Agonist Activity,168 GPCRs [1]; 1 uM,2.4%
same,% Antagonist Activity,168 GPCRs [1]; 1 uM,1.2%
same,% Agonist Activity,168 GPCRs [1]; 10 uM,0.9%
same,% Antagonist Activity,168 GPCRs [1]; 10 uM,-1%
same,% Agonist Activity,168 GPCRs [2]; Conc 1 uM,-0.2%
same,% Antagonist Activity,168 GPCRs [2]; Conc 1 uM,4.4%
same,% Agonist Activity,168 GPCRs [2]; Conc 10 uM,-0.1%
same,% Antagonist Activity,168 GPCRs [2]; Conc 10 uM,-2.1%
same,% Agonist Activity,"168 GPCRs [3]; CHRM4, 1 uM",-1.8%
same,% Antagonist Activity,"168 GPCRs [3]; CHRM4, 1 uM",32.8%
same,% Agonist Activity,"168 GPCRs [3]; CHRM4, 10 uM",-3.2%
same,% Antagonist Activity,"168 GPCRs [3]; CHRM4, 10 uM",26.3%
same,% Agonist Activity,"168 GPCRs [4]; DRD4, 1 uM",-0.7%
same,% Antagonist Activity,"168 GPCRs [4]; DRD4, 1 uM",14.9%
same,% Agonist Activity,"168 GPCRs [4]; DRD4, 10 uM",-0.1%
same,% Antagonist Activity,"168 GPCRs [4]; DRD4, 10 uM",7.7%
same,% Agonist Activity,168 GPCRs [5]; Conc 1 uM,3.5%
same,% Antagonist Activity,168 GPCRs [5]; Conc 1 uM,5.2%
same,% Agonist Activity,168 GPCRs [5]; Conc 10 uM,3.6%
same,% Antagonist Activity,168 GPCRs [5]; Conc 10 uM,4.2%
same,% Agonist Activity,"168 GPCRs [6]; DRD2S, 1 uM",1.6%
same,% Antagonist Activity,"168 GPCRs [6]; DRD2S, 1 uM",5.8%
same,% Agonist Activity,"168 GPCRs [6]; DRD2S, 10 uM",1.9%
same,% Antagonist Activity,"168 GPCRs [6]; DRD2S, 10 uM",14.7%
same,% Agonist Activity,"168 GPCRs [6]; NPSR1B, Conc 1 uM",-3.8%
same,% Antagonist Activity,"168 GPCRs [6]; NPSR1B, Conc 1 uM",4.3%
same,% Agonist Activity,"168 GPCRs [6]; NPSR1B, Conc 10 uM",-5.1%
same,% Antagonist Activity,"168 GPCRs [6]; NPSR1B, Conc 10 uM",5%
